Values of other authors as cited in article PMC10715210, “Colistin plasma concentrations are not associated with better clinical outcomes in patients with pneumonia caused by extremely drug-resistant Pseudomonas aeruginosa” (Microbiology Spectrum, 2023).
Positions of bridges follow the written chain, without caps; N, C: chain ends. Non-standard residues stand in square brackets, D forms with d. Residues, ends and D or L forms follow the SMILES beside them. *: point of attachment. X1 = CC[C@H](C)CCCCC(=O)*; Dab = NCC[C@H](N)C(=O)O

Details: samples drawn at 45 min after the start of infusion; loading dose 9 million IU CMS then 4.5 million IU every 12 hours; cited from earlier work
Method: ([10]). […] Concentrations of CMS and formed colistin in plasma were measured as reported previously ([35], [36]). The limits of quantification for colistin and CMS in plasma were 0.20 and 0.50 mg/L, respectively. Based on the almost flat plasma concentration-time profiles of formed colistin at st ...

SMILES: CC[C@H](C)CCCCC(=O)N[C@@H](CCN)C(=O)N[C@H](C(=O)N[C@@H](CCN)C(=O)N[C@H]1CCNC(=O)[C@H]([C@@H](C)O)NC(=O)[C@H](CCN)NC(=O)[C@H](CCN)NC(=O)[C@H](CC(C)C)NC(=O)[C@@H](CC(C)C)NC(=O)[C@H](CCN)NC1=O)[C@@H](C)O [colistin] (X1-[Dab]T[Dab][Dab][Dab][dL]L[Dab][Dab]T; lactam 4-C)
- Colistin plasma concentration: 0.44 (0.14–1.59) mg/L
